Experimental findings from patent US8629168B2, “Benzoxazoles and oxazolopyridines being useful as janus kinases inhibitors” (priority 2006, dated 2014) are described below.

For one data set, the target named is T1, GST-JAK2 (Homo sapiens, UniProt O60674).
T1 construct: the amino acid domain ASP751-VAL1129 of the JAK2 protein
Description: JAK2 kinase assay of the general description (alternative method, flash plate). In kind it is biochemical. As to conditions: 1.0 μM ATP, read-out: IC50 with test in general description (named “alternative method to that given in the examples”) (“flash plate”). The method, then:
Baculovirus including the amino acid domain ASP751-VAL1129 of the JAK2 protein is obtainable by ProQinase, Freiburg, Germany. The virus is scaled up as following: Virus containing media is collected from the transfected cell culture and used for infection to increase its titer. Virus containing media obtained after two rounds of infection is used for large-scale protein expression. For large-scale protein expression 100 cm^2 round tissue culture plates are seeded with 5×10^7 cells/plate and infected with 1 mL of virus-containing media (approx. 5 MOIs). After 3 days the cells are scraped off the plate and centrifuged at 500 rpm for 5 min. Cell pellets from 10-20, 100 cm^2 plates, are re-suspended in 50 mL of ice-cold lysis buffer (25 mMTris-HCl, pH7.5, 2 mMEDTA, 1% NP-40, 1 mM DTT, 1 mMP MSF). The cells are stirred on ice for 15 min and then centrifuged at 5000 rpms for 20 min. The protein is purified by loading the centrifuged cell lysate onto a 2 mL glutathione-sepharose column and washed three times with 10 mL of 25 mM Tris-HCl, pH 7.5, 2 mM EDTA, 1 mM DTT, 200 mM NaCl. The GST-tagged proteins are then eluted by 10 applications (1 mL each) of 25 mM Tris-HCl, pH 7.5, 10 mM reduced-glutathione, 100 mM NaCl, 1 mM DTT, 10% Glycerol and stored at −70° C.
Cancer Cell; 5: 231-239]. The test compound is dissolved in DMSO (10 mM) and stored at −20° C. Serial dilutions are freshly made in DMSO and are […] concentrated than test solutions (“pre-dilution plates”). They are further diluted with pure water to yield “master plates” containing 3 times concentrated test solutions in 3% DMSO. The final volume of the assay is 30 μL containing 10 μL of test solution (1% DMSO), 10 μL assay mix including the assay components described by Garcia-Echeverria (2004) and in the following section as well as 10 μL enzyme. The pipetting steps can be programmed to be performed either on the MultiPROBE Iix, MultiPROBE IILx or HamiltonSTAR robots in the 96 well format.
The protein kinase assays are carried as described in details by Garcia-Echeverria (see above). The assay for JAK2 is carried out in 96-well plates at ambient temperature for 10 min (filter-biding method) or 30 min (flash plates) in a finial volume of 30 μL including the following components: 300 ng of GST-JAK2, 20 mM Tris-HCl, pH 7.5, 1.0 mM MnCl2, 10 mM MgCl2, 1 mM DTT, 3 μg/mL poly(Glu, Tyr) 4:1, 1% DMSO and 1.0 μM ATP (γ-[^33P]-ATP 0.1 μCi); The assays are terminated by the addition of 20 μl of 125 mM EDTA. The capturing of the phosphorylated peptides by the filter-binding method is performed as following: 40 μL of the reaction mixture are transferred onto Immobilon-PVDF membranes previously soaked for 5 min with methanol, rinsed with water, then soaked for 5 min with 0.5% H3PO4 and mounted on vacuum manifold with disconnected vacuum source. After spotting all samples, vacuum is connected and each well rinsed with 200 μl 0.5% H3PO4. Free membranes are removed and washed 4× on a shaker with 1.0% H3PO4, once with ethanol. Membranes are counted after drying at ambient temperature, mounting in Packard TopCount 96-well frame, and addition of 10 μl/well of Microscint. The plates are eventually sealed and counted in a microplate scintillation counter (TopCount NXT, TopCount NXT HTS, PerkinElmer, Brussels, Belgium).
The assays for the flash plate method is carried out in a total volume of 30 μL at RT in conventional 96-well flash plates. The reaction is stopped after 30 min by the addition of 20 μL of 125 mM EDTA The assay plates are then washed three times with PBS and dried at room temperature. The plates are sealed and counted in a microplate scintillation counter (TopCount NXT, TopCount NXT HTS). IC50 values are calculated by linear regression analysis of the percentage inhibition of the compound either in duplicate, at four concentrations (usually 0.01, 0.1, 1 and 10 μM) or as 8 single point IC50 starting at 10 μM following by 1:3 dilutions.

For the next data set, the target named is T2, GST-JAK2(808-1132) (Homo sapiens, UniProt O60674).
T2 construct: GST-JAK2(808-1132) is purchased from Invitrogen; purchased Invitrogen (Carlsbad, USA) #4288
T2 sequence (O60674 808-1132): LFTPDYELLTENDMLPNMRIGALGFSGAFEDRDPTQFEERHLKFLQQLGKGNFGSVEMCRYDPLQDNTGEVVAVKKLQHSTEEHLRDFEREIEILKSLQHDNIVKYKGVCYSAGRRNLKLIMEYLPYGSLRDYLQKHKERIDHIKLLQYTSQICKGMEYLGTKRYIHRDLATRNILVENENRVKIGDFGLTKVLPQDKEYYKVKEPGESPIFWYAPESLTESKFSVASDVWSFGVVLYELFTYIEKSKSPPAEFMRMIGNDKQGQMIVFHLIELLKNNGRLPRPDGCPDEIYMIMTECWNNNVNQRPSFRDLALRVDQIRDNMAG
Description: EPK JAK/TYK-kinase family profiling assay (Caliper mobility shift), JAK2. In kind it is biochemical. To be noted: Caliper mobility shift assay of Example 187, 20 μM ATP, read-out: IC50 with Test in present Example. The method, boiled down: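 Caliper mobility-shift assay with the GST-tagged kinase domain and a fluorescently labeled peptide substrate plus ATP, run 60 min at 30° C and then stopped with EDTA buffer. Turnover was taken as the substrate/product ratio. Compounds were tested at eight final concentrations from 10 to 0.003 μM.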

T1 sequence (O60674 751-1129): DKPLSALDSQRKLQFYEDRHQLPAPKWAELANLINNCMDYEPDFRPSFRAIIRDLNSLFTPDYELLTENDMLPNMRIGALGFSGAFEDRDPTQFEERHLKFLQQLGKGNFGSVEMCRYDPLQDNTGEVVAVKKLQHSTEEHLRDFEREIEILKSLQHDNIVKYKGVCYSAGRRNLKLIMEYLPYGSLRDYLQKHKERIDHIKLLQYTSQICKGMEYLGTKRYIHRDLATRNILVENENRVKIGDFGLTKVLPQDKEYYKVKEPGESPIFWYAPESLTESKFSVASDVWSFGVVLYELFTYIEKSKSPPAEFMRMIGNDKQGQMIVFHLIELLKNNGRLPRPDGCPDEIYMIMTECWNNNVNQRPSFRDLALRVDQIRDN

One may read the IC50 as the concentration needed to halve the response being measured. What is called melting point is the temperature, or range, at which the solid turns liquid. In turn, `COc1cc(Nc2nc3cccc(-c4cccc(N)c4)c3o2)cc(OC)c1OC` [Example 10, [7-(3-Amino-phenyl)-benzooxazol-2-yl]-(3,4,5-trimethoxy-phenyl)-amine] displayed a melting point of 145 to 170 °C. The IC50 at GST-JAK2 amounted to 132 nM.
As for `COc1cc(Nc2nc3cccc(-c4ccc(N)cc4)c3o2)cc(OC)c1OC` [Example 11, [7-(4-Amino-phenyl)-benzooxazol-2-yl]-(3,4,5-trimethoxy-phenyl)-amine], the melting point fell in the range of 192 to 196 °C. The IC50 at GST-JAK2 came out at 147 nM.
`COc1ccc(-c2cccc3nc(Nc4cc(OC)c(OC)c(OC)c4)oc23)cn1` [Example 12, [7-(6-Methoxy-pyridin-3-yl)-benzooxazol-2-yl]-(3,4,5-trimethoxy-phenyl)-amine] had a melting point of 192 to 193 °C. The IC50 at GST-JAK2 amounted to 670 nM.
The matching figures for `COc1cc(Nc2nc3cccc(-c4ccc(C)c(N)c4)c3o2)cc(OC)c1OC` [Example 13, [7-(3-Amino-4-methyl-phenyl)-benzooxazol-2-yl]-(3,4,5-trimethoxy-phenyl)-amine]: 188 to 190 °C and 174 nM.
The matching figures for `COc1cc(Nc2nc3cccc(-c4ccc5ncccc5c4)c3o2)cc(OC)c1OC` [Example 15, (7-Quinolin-6-yl-benzooxazol-2-yl)-(3,4,5-trimethoxy-phenyl)-amine]: 187 to 190 °C and 570 nM.
Consider `COc1cc(Nc2nc3cccc(-c4ccc(C(N)=O)cc4)c3o2)cc(OC)c1OC` [Example 16, 4-[2-(3,4,5-Trimethoxy-phenylamino)-benzooxazol-7-yl]-benzamide], for which the melting point was > 280 °C. The IC50 at GST-JAK2 came out at 93 nM. On GST-JAK2(808-1132), the IC50 is 35 nM.
Taken in the same sequence, the figures for `COc1cc(Nc2nc3cccc(-c4ccc(S(C)(=O)=O)cc4)c3o2)cc(OC)c1OC` [Example 17, [7-(4-Methanesulfonyl-phenyl)-benzooxazol-2-yl]-(3,4,5-trimethoxy-phenyl)-amine] were 205 to 207 °C, 40 nM and 12 nM.
The compound `COc1cc(Nc2nc3cccc(-c4ccc(S(N)(=O)=O)cc4)c3o2)cc(OC)c1OC` [Example 18, 4-[2-(3,4,5-Trimethoxy-phenylamino)-benzooxazol-7-yl]-benzenesulfonamide] gave a melting point of 247 to 252 °C. Further, the IC50 at GST-JAK2 is 10 nM. On GST-JAK2(808-1132), the IC50 was determined as 10 nM.
The compound `COc1cc(Nc2nc3cccc(-c4ccc(C#N)cc4)c3o2)cc(OC)c1OC` [Example 19, 4-[2-(3,4,5-Trimethoxy-phenylamino)-benzooxazol-7-yl]-benzonitrile] returned a melting point of 222 to 223 °C. Moreover, the IC50 on GST-JAK2 was 170 nM.
Take `COc1cc(Nc2nc3cccc(-c4ccn[nH]4)c3o2)cc(OC)c1OC` [Example 20, [7-(2H-Pyrazol-3-yl)-benzooxazol-2-yl]-(3,4,5-trimethoxy-phenyl)-amine]: the melting point lay within 185 to 189 °C. Further, the IC50 at GST-JAK2 turned out to be 1000 nM.
For `CNS(=O)(=O)c1ccc(-c2cccc3nc(Nc4cc(OC)c(OC)c(OC)c4)oc23)cc1` [Example 21, N-Methyl-4-[2-(3,4,5-trimethoxy-phenylamino)-benzooxazol-7-yl]-benzenesulfonamide], the melting point lay in the range of 260 to 262 °C. Further, the IC50 on GST-JAK2 came to 16 nM. Besides, the IC50 on GST-JAK2(808-1132) is 19 nM.
For the compound `COc1cc(Nc2nc3cccc(-c4ccc(S(=O)(=O)N(C)C)cc4)c3o2)cc(OC)c1OC` [Example 22, N,N-Dimethyl-4-[2-(3,4,5-trimethoxy-phenylamino)-benzooxazol-7-yl]-benzenesulfonamide], the melting point fell in the range of 230 to 233 °C. In addition, the half-maximal inhibitory concentration (IC50) on GST-JAK2 came to 140 nM.
The matching figures for `COc1cc(Nc2nc3cccc(-c4ccc(S(=O)(=O)N5CCOCC5)cc4)c3o2)cc(OC)c1OC` [Example 23, {7-[4-(Morpholine-4-sulfonyl)-phenyl]-benzooxazol-2-yl}-(3,4,5-trimethoxy-phenyl)-amine]: 201 to 203 °C and 190 nM.
In turn, `CNC(=O)c1ccc(-c2cccc3nc(Nc4cc(OC)c(OC)c(OC)c4)oc23)cc1` [Example 24, N-Methyl-4-[2-(3,4,5-trimethoxy-phenylamino)-benzooxazol-7-yl]-benzamide] returned a melting point of 258 to 259 °C. The IC50 at GST-JAK2 was found to be 79 nM. Moreover, the IC50 at GST-JAK2(808-1132) was found to be 19 nM.
Take `COc1cc(Nc2nc3cccc(-c4ccc(C(=O)N(C)C)cc4)c3o2)cc(OC)c1OC` [Example 25, N,N-Dimethyl-4-[2-(3,4,5-trimethoxy-phenylamino)-benzooxazol-7-yl]-benzamide]: the melting point is > 280 °C. Further, the IC50 on GST-JAK2 worked out at 140 nM.
`COc1cc(Nc2nc3cccc(-c4cccc(NC(C)=O)c4)c3o2)cc(OC)c1OC` [Example 28, N-{3-[2-(3,4,5-Trimethoxy-phenylamino)-benzooxazol-7-yl]-phenyl}-acetamide] came in with a melting point of 170 to 172 °C. For the same compound, at GST-JAK2, the IC50 is 310 nM.
The matching figures for `COc1cc(Nc2nc3cccc(-c4cccc(CN)c4)c3o2)cc(OC)c1OC` [Example 32, [7-(3-Aminomethyl-phenyl)-benzooxazol-2-yl]-(3,4,5-trimethoxy-phenyl)-amine]: 145 to 150 °C and 270 nM.
Turning to `COc1cc(Nc2nc3cccc(-c4cccc(CNC(C)=O)c4)c3o2)cc(OC)c1OC` [Example 33, N-{3-[2-(3,4,5-Trimethoxy-phenylamino)-benzooxazol-7-yl]-benzyl}-acetamide], the melting point is 203 to 204 °C. Further, the IC50 on GST-JAK2 was 290 nM.
The matching figures for `COc1cc(Nc2nc3ccnc(-c4cccc(N)c4)c3o2)cc(OC)c1OC` [Example 37, [4-(3-Amino-phenyl)-oxazolo[5,4-c]pyridin-2-yl]-(3,4,5-trimethoxy-phenyl)-amine]: 120 to 126 °C and 240 nM.
Taken in the same sequence, the figures for `COc1cccc(-c2cccc3nc(Nc4ccc(N5CCOCC5)cc4)oc23)c1` [Example 39, [7-(3-Methoxy-phenyl)-benzooxazol-2-yl]-(4-morpholin-4-yl-phenyl)-amine] were 180 to 182 °C and 1200 nM.
The matching figures for `Nc1ccc(-c2cccc3nc(Nc4ccc(N5CCOCC5)cc4)oc23)cc1` [Example 40, [7-(4-Aminophenyl)-benzooxazol-2-yl]-(4-morpholin-4-yl-phenyl)-amine]: 241 to 243 °C and 1100 nM.
In turn, `Nc1cccc(-c2cccc3nc(Nc4ccc(N5CCOCC5)nc4)oc23)c1` [Example 42, [7-(3-Amino-phenyl)-benzooxazol-2-yl]-(6-morpholin-4-yl-pyridin-3-yl)-amine] returned a melting point of 235 to 237 °C. For the same compound, the half-inhibitory concentration (IC50) on GST-JAK2 is 1200 nM.
